This note sets out measurements from ChEMBL document CHEMBL4138230, “New estrogen receptor antagonists. 3,20-Dihydroxy-19-norpregna-1,3,5(10)-trienes: Synthesis, molecular modeling, and biological evaluation” (Eur J Med Chem, 2018).

The structures appear in SMILES notation. The source made the active and inactive calls. No cut-off for these calls is given here.

One data set concerns MCF-10A. Description: Growth inhibition of human MCF10A cells after 72 hrs by MTT assay. It counts as cell-based.
Data set [1] addresses T1, Estrogen receptor (Homo sapiens) (UniProt P03372).
T1 sequence (whole entry): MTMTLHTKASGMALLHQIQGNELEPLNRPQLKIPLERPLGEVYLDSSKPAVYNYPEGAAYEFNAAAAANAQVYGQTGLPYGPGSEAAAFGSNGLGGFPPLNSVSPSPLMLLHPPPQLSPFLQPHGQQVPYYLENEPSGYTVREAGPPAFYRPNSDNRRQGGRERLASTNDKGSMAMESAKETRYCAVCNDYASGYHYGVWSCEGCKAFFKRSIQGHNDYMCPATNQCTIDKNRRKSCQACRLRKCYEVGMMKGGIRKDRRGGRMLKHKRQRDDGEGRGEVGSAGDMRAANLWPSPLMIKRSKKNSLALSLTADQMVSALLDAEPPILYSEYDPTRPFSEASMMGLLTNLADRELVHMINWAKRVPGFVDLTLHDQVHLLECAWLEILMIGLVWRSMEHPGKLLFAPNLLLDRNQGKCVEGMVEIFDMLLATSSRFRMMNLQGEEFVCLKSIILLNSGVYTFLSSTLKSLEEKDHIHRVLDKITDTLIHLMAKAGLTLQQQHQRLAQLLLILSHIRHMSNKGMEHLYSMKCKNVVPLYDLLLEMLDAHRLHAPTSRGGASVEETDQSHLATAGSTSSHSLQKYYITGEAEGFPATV
Description: Antagonist activity at ERalpha in human MCF7 cells at 5 uM after 24 hrs by luciferase reporter gene assay relative to control. Type of data set: cell-based.

For data set [2], the system named is MCF7. Description: cells. Conditions: Homo sapiens, MCF7, 72 h.
Description: Growth inhibition of human MCF7 cells after 72 hrs by MTT assay
Data set [3] can be described thus: Growth inhibition of human MCF10A cells at <25 uM after 72 hrs by MTT assay relative to control. It counts as cell-based, MCF-10A. As to conditions: read-out: GI.
Data set [4] concerns MCF7. Description: Growth inhibition of human MCF7 cells at <25 uM after 72 hrs by MTT assay relative to control. It counts as functional. In general terms: Formazan colour is commonly taken as a measure of viable cells.

With `CC(O)C1=CC[C@H]2[C@@H]3CCc4cc(O)ccc4[C@H]3CC[C@]12C` (mixture of isomers), the IC50 (in general, the concentration at which inhibition is half-maximal) in the data set with MCF-10A turned out to be 19.1 µM; in the data set with MCF7 [2] it was 4.6 µM. Besides, in data set [1], the inhibition result was “inactive”.
For `COc1ccc2c(c1)CC[C@@H]1[C@@H]2CC[C@@]2(C)[C@H]1C[C@H]1CCCC[C@]12C(C)O` (mixture of isomers), the inhibition entry in data set [1] was “inactive”.
In the case of `CC(=O)[C@@]12CCCC[C@@H]1C[C@H]1[C@@H]3CCc4cc(O)ccc4[C@H]3CC[C@@]12C`, the inhibition at 72 h in data set [3] was less than 50%. Besides, in data set [1], the inhibition result was “Active”. In the data set on MCF7 [2], the IC50 came to 15.8 µM.
Turning to `CC(=O)[C@H]1CC[C@H]2[C@@H]3CCc4cc(O)ccc4[C@H]3CC[C@]12C`, in the data set on MCF7 [4], the “growth inhibition (GI)” value is listed as less than 50%. Moreover, the inhibition at 72 h in data set [3] is less than 50%. Also, the inhibition result in data set [1] is “inactive”.
Regarding `COc1ccc2c(c1)CC[C@@H]1[C@@H]2CC[C@@]2(C)[C@H]1C[C@H]1CCCC[C@]12C(C)=O`, the “growth inhibition (GI)” value in the data set on MCF7 [4] is less than 50%. For the same compound, the inhibition at 72 h in data set [3] is less than 50%. In addition, in data set [1], the inhibition entry is “inactive”.
Take `CC/C(=C(\c1ccccc1)c1ccc(OCCN(C)C)cc1)c1ccccc1` [TAMOXIFEN]: the inhibition at 72 h in data set [3] was less than 50%. Also, the IC50 with MCF7 [2] turned out to be 5.3 µM.
For `CC(O)[C@@]12C[C@@H]1C[C@H]1[C@@H]3CCc4cc(O)ccc4[C@H]3CC[C@@]12C` (mixture of isomers), the IC50 was determined as 3.1 µM with MCF-10A and 0.21 µM in the data set with MCF7 [2]. The inhibition entry in data set [1] is “Active”.
Take `C[C@@H](O)[C@@]12CCCC[C@@H]1C[C@H]1[C@@H]3CCc4cc(O)ccc4[C@H]3CC[C@@]12C`: the inhibition at 72 h in data set [3] is less than 50%. Also, in data set [1], the inhibition was found to be 70%. Also, in the data set with MCF7 [2], the midpoint of inhibition, the IC50, lay at 6.8 µM.
On to `C[C@H](O)[C@@]12CCCC[C@@H]1C[C@H]1[C@@H]3CCc4cc(O)ccc4[C@H]3CC[C@@]12C`, for which the 50% inhibitory concentration (IC50) in the data set with MCF-10A amounted to 23 µM; with MCF7 [2] it was 4.6 µM. In addition, the inhibition entry in data set [1] was “Active”.
For the compound `C[C@@H](O)[C@H]1CC[C@H]2[C@@H]3CCc4cc(O)ccc4[C@H]3CC[C@]12C`, the results for the IC50 with MCF-10A and in the data set on MCF7 [2] were 5.9 µM and 0.15 µM, respectively. The inhibition result in data set [1] was “Active”.
